Experimental data published in patent US20070197488A1, “Prodrugs of ERbeta-selective substances, process for their production, and pharmaceutical compositions that contain these compounds” (priority 2005, published 2007).

Legend:
[1] = molecular target: Human Carbonic Anhydrase II (Homo sapiens, UniProt P00918); experiment: Carbonic anhydrase inhibition (CO2 hydration, time to pH drop); type: biochemical; settings: read-out: CAII IC50
Protocol: (§1) b) Carbonic Anhydrase Inhibition—Test Principle and Test Description:
(§2) Carbonic anhydrases catalyze the CO2 hydration.
(§3) Test preparation: A constant CO2 stream is directed through a buffer that was mixed with carbonic anhydrase I or carbonic anhydrase II. The measuring parameter is the time that is required to drop the pH within defined limits. This parameter reflects the formation of H2CO3 in the medium. IC50-Inhibiting values are determined by test substances being pipetted into the test preparation.

[2] = molecular target: Human Carbonic Anhydrase I (Homo sapiens, UniProt P00915); experiment: as above; type: biochemical; settings: read-out: CAI IC50
Chain of Human Carbonic Anhydrase I (P00915 whole entry): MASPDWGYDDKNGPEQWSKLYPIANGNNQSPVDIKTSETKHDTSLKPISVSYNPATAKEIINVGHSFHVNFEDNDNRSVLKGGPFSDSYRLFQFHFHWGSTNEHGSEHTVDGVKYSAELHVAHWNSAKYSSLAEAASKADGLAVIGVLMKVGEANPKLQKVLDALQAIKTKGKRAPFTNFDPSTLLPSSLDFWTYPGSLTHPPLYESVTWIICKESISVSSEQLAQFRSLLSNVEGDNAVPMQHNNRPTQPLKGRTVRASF
Protocol: as §1, §2, §3

[3] = Plasma level of released mother estrogen after oral administration in ovariectomized rats; type: in vivo, Wistar rats; settings: 1x oral 1 mg/animal, compared with oral 8-vinyl-E2
Protocol: Adult Wistar rats were ovariectomized 14 days after this operation for the study of the substances according to the invention. A treatment extended over 3 days (days 1-3), and on day 4, the animals were sacrificed. Then, the recovery of plasma for hormone-analytical and clinical-chemical determinations and the determination of uterus weights were carried out. In satellite tests, correspondingly conditioned animals were sacrificed and samples were taken of their blood after one-time treatment and at other times (see FIGS. 1 and 2).

| Structure (SMILES) | IC50 [1] [nM] | IC50 [2] [nM] | Increase of the 8β-vinylestra-1,3,5(10)-triene-3,17β-diol level (8-vinyl-E2) in the plasma [3] |
| --- | --- | --- | --- |
| C=C[C@@]12CCc3cc(O)ccc3[C@H]1CC[C@]1(C)[C@@H](OC(=O)c3ccccc3)CC[C@H]12 [(3′-Hydroxy-8′beta-vinyl-estra-1′,3′,5′(10′)-trien-17′beta-yl)-benzoat] | > 10000 | > 10000 |  |
| C[C@]12CC[C@@H]3c4ccc(OS(N)(=O)=O)cc4CC[C@H]3[C@@H]1CC[C@@H]2O [Estradiol-3-sulfamate] | 21.6 ± 1.5 | 157 ± 10.6 |  |
| C=C[C@@]12CCc3cc(O)ccc3[C@H]1CC[C@]1(C)[C@@H](OC(=O)c3cccc(S(N)(=O)=O)c3)CC[C@H]12 [Example 1, (3′-Hydroxy-8′-vinylestra-1′,3′,5′(10′)-trien-17′β-yl)-3-sulfamoyl benzoate] | 570 | 3900 | Considerably greater increase |
| C=C[C@@]12CCc3cc(O)ccc3[C@H]1CC[C@]1(C)[C@@H](OC(=O)c3ccc(S(N)(=O)=O)cc3)CC[C@H]12 [Example 2, (3′-Hydroxy-8′-vinylestra-1′,3′,5′(10′)-trien-17′β-yl)-4-sulfamoyl benzoate] |  |  | greater increase |
